Our source for the EC50 and DC50 values is patent US20250100996A1, “HETEROCYCLOALKYL AND HETEROARYL COMPOUNDS AND PHARMACEUTICAL COMPOSITIONS THAT MODULATE IKZF2” (Plexium, Inc., priority 2021, published 2025).

The target of experiment [1] is T1, human E3 ligase component cereblon (CRBN) (Homo sapiens, UniProt Q96SW2).
T1 construct: host or cells: HEK293T
In words: Cereblon (CRBN) target engagement, NanoBRET TE Intracellular E3 Ligase Assay in transfected HEK-293T cells. The conditions noted are these: read-out: CRBN Binding EC50. How it is done:
HEK293T cells were harvested ca. 75% confluent with trypsin and plated (500,000 cells/well) in a 6-well tissue culture plate in 2 mL of Dulbecco's Modified Eagle Medium (DMEM)^+10% Fetal Bovine Serum (FBS) and incubated overnight at 37° C.
The NanoLuc-CRBN fusion vector (Nluc-CRBN; Promega) contains the coding region of human E3 ligase component cereblon (CRBN) fused to the C-terminus of the NanoLuc luciferase coding region. A mixture of 10 ng Nluc-CRBN and 990 ng DDB1 Expression Vector (Promega) was added to 125 μL Opti-Minimum Essential Medium (Opti-MEM™; Thermo Fisher) along with […] P3000 reagent (Thermo Fisher) in a 1.5 mL epppendorf tube. This solution was added to Lipofectamine 3000 transfection reagent (5 μL; Thermo Fisher) in Opti-MEM (125 μL), mixed well, and incubated for 15 minutes at room temperature. The transfection mixture was added dropwise to cells and incubated overnight at 37° C., 5% CO2. Following transfection, cells were washed once with PBS, and trypsin (250 μL) was added and incubated 30-45 see to dislodge cells. Complete media (2 mL) was added to resuspend cells to form a single cell suspension. Cells were centrifuged at 320×g for 5 min at room temperature, the supernatant was removed, and the cell pellet resuspended in Opti-MEM (3 mL; wash step repeated ×2). After final resuspension in 5 mL Opti-MEM, cells were counted and resuspended at 200,000 cells/mL in Opti-MEM.
Cereblon target engagement was monitored by Bioluminescence Resonance Energy Transfer (BRET) in transfected HEK-293T cells using the NanoBRET TE Intracellular E3 Ligase Assay (Promega). Briefly, 384-well plates (white opaque plates, Corning 3574, low binding surface) were seeded with transfected HEK-293T cells (38 μL/well). 2 μL of 10 μM CRBN tracer (diluted 1:5 in Tracer Dilution Buffer) was added to each well. Plates were centrifuged at 320×g for 1 min at room temperature. Test compounds were added in a 11-point dilution series (typically 10 μM to 100 pM) using a TECAN D300e Digital Dispenser. Plates were shaken for 2 minutes on a microplate shaker to mix compounds. Plates were centrifuged at 320×g for 1 min at room temperature, and subsequently incubated for 2 hours at 37° C.
After incubation, plates were allowed to cool to room temperature for 15 minutes. 20 μL of 3× Complete NanoBRET™ Nano-Glo® Substrate plus Inhibitor Solution (Promega, 1:166 Substrate and 1:500 dilution of Extracellular NanoLuc® Inhibitor diluted in Opti-MEM) were added to each well. Plates were incubated with shaking at room temperature for 3 minutes covered with foil. Plates were read on a CLARIOstar microplate reader (BMG LabTech), measuring at 450 nm (donor emission) and 610 nm (acceptor emission). The IC50 values were determined by regression to best fit four-parameter logistic curves using GraphPad Prism.

Another experiment has as its target T2, IKZF2 (Helios) (Homo sapiens, UniProt Q9UKS7).
T2 construct: Leu-Asp junction (codons ctcgac before the linker); mScarlet (behind P2A) (C, cleaved yes); expressed in transfected cells
Nature of the experiment: IKZF2 reporter degradation assay (HEK 293T IKZF2-mNeonGreen reporter cell line). Format: cell-based. The conditions noted are these: HEK 293T IKZF2-mNeonGreen reporter, 24 hours incubation. The text has this: Polycistronic plasmids were constructed for the mammalian expression of fluorescent reporter fusions of human transcription factors IKZF1 (Ikaros), IKZF2 (Helios), and IKZF3 (Aiolos). The respective protein sequences had their C-terminal end joined to a GGGGS linker repeated three times followed by mNeonGreen, P2A sequence, and mScarlet. The DNA sequences of the open reading frames are as follows:
IKZF1, IKZF2, and IKZF3 constructs were cloned into the UCOE Hygromycin expression vectors (Millipore Sigma). Reporter constructs were transfected using cationic lipid reagents into adherent HEK 293T cells and stable integrants were selected by treatment with 200 μg/mL hygromycin B. Clonal populations were obtained from the population of stable integrants either by limiting dilution or fluorescence activated cell sorting.
The clonal stable cell lines were maintained under constant 200 μg/mL hygromycin B selection while being passaged for use in the degradation assays. […] The fluorescence intensity of the IKZF1/2/3-mNeonGreen (FITC channel) and mScarlet (PE channel) reporters were routinely analyzed by flow cytometry to confirm consistent expression levels between experiments.
The IKZF1/IKZF2/IKZF3 degradation assays were carried out by harvesting the HEK 293T reporter cell lines and resuspending the cells in media formulated for reduced background fluorescence (FluoroBrite; Thermo Fisher). The respective cell lines were seeded at a density of 4000 cells/well into black-walled 384-well optical grade assay tissue culture plates. The cells were incubated overnight at 37° C. to allow for attachment to the assay plate. Dilutions of the compounds were prepared in DMSO from 10 mM compound stocks. The assay plates were treated with appropriate concentrations of the compounds by dispensing the DMSO dilutions in quadruplicate wells with an upper limit of 0.5% final DMSO.
After 24 hours incubation with the compounds, the assay plates were imaged on an ImageXpress Pico microscopy system (cells maintained at 37° C. during imaging) to obtain the fluorescent readouts. The assay plates were imaged in the FITC and Tetramethylrhodamine (TRITC) channels to obtain the mNeonGreen fluorescence intensity (reporter degradation data) and mScarlet fluorescence intensity (for cell segmentation). 293T-IKZF1 and 293T-IKZF3 reporter cell lines were imaged with exposures of 500 milliseconds (ms) for both FITC and TRITC channels, while the 293T-IKZF2 reporter cell line was imaged with exposures of 1000 ms for FITC and 1250 ms for TRITC. The resulting data was analyzed with Cell Reporter Xpress software using the 2-channel cell scoring analysis with a “percent positive” readout. The TRITC channel was selected for the “nuclei” segmentation with a threshold of 20 while the FITC channel was selected for the “Marker 1” segmentation and a threshold of 100 for the IKZF1 and IKZF3 reporter lines. […] The minimum segmentation width was set to 6 micrometers and the maximum segmentation width was set to 15 micrometers for all cell lines. The DC50 calculations were determined by regression to best fit four-parameter logistic curves using GraphPad Prism.

Some results are limits rather than exact numbers.

T1 sequence (Q96SW2 whole entry): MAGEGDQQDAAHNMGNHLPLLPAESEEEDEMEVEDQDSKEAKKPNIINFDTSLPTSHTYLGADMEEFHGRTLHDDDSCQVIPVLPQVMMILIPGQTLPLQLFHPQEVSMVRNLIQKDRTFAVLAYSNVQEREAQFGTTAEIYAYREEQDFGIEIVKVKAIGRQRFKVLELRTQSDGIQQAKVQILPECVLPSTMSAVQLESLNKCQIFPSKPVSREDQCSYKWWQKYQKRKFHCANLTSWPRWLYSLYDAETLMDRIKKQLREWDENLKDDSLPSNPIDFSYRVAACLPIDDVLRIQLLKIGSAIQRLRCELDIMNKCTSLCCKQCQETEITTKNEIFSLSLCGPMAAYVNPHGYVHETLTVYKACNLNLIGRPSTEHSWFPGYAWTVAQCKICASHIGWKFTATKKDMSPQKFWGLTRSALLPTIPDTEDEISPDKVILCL
T1 sequence (Q16531 whole entry partner): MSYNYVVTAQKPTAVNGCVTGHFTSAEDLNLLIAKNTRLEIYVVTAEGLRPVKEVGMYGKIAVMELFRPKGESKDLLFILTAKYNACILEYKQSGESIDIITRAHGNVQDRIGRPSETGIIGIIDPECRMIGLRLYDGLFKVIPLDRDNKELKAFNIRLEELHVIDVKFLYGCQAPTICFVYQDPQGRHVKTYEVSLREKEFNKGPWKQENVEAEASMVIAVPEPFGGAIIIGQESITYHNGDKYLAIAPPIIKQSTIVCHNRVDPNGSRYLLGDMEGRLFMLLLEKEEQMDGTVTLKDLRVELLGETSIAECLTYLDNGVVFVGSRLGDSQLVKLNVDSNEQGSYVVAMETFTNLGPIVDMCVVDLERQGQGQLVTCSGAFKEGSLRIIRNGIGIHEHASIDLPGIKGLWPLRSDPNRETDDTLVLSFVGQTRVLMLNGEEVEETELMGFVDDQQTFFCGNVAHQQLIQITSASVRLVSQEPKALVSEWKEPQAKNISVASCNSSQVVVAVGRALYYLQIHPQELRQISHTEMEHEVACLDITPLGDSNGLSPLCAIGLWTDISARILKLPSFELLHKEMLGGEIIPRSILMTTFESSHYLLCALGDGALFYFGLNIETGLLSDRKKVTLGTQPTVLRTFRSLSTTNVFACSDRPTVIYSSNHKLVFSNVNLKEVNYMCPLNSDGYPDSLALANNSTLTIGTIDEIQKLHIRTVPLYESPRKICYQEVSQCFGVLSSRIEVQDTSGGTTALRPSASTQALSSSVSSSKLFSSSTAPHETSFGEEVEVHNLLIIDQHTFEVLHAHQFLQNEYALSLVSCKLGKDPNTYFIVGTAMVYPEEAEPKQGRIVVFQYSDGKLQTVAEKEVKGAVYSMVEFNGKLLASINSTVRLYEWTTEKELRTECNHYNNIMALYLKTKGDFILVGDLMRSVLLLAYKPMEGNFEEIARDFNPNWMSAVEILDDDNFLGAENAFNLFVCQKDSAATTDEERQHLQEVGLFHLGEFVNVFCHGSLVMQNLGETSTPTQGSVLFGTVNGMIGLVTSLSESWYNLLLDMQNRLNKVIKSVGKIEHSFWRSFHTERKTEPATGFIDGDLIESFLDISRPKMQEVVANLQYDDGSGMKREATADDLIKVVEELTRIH
T2 sequence (Q9UKS7 whole entry): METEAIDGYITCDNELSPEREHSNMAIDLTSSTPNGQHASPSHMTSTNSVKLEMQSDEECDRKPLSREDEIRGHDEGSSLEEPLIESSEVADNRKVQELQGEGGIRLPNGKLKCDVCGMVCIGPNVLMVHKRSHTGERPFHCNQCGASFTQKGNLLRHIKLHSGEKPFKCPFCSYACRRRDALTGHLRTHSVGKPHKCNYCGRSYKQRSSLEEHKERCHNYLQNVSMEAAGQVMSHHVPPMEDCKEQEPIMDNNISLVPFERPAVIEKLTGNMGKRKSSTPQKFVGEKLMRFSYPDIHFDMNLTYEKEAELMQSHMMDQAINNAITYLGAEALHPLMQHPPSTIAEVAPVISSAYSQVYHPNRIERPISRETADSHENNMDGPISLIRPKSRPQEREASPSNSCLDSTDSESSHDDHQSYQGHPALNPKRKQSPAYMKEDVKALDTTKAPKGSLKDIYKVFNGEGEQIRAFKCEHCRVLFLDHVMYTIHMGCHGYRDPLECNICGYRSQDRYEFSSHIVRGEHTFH
T2 sequence (Q96SW2 whole entry, further chain): as the sequence (Q96SW2 whole entry) above
T2 sequence (Q16531 whole entry partner): as the sequence (Q16531 whole entry partner) above

As for `Cc1cnc(C2CN([C@H]3CCCC3Oc3ccc4c(c3)CN(C35CC(C3)C(=O)NC5=O)C4=O)C2)o1` (mixture of isomers) [Compound 144-B, Rac-1-(5-(((cis)-2-(3-(5-methyloxazol-2-yl)azetidin-1-yl)cyclopentyl)oxy)-1-oxoisoindolin-2-yl)-3-azabicyclo[3.1.1]heptane-2,4-dione], in experiment [1], the EC50 is above 10000 nM. With `Cc1cnc(C2CN([C@H]3CCCC3Oc3ccc4c(c3)CN(C35CC(C3)C(=O)NC5=O)C4=O)C2)o1` (mixture of isomers) [Compound 145-B, Rac-1-(5-(((trans)-2-(3-(5-methyloxazol-2-yl)azetidin-1-yl)cyclopentyl)oxy)-1-oxoisoindolin-2-y1)-3-azabicyclo[3.1.1]heptane-2,4-dione], the EC50 in experiment [1] was above 10000 nM.

For `Cc1cnc(C2CN([C@H]3CCCC[C@H]3Oc3ccc4c(c3)CN(C35CC(C3)C(=O)NC5=O)C4=O)C2)o1` (racemic) [Compound 149-B, Rac-1-(5-(((cis)-2-(3-(5-methyloxazol-2-yl)azetidin-1-yl)cyclohexyl)oxy)-1-oxoisoindolin-2-yl)-3-azabicyclo[3.1.1]heptane-2,4-dione], the EC50 in experiment [1] is above 10000 nM. On the same count and under the same terms, for `Cc1cnc(C2CN([C@H]3CCCC[C@@H]3Oc3ccc4c(c3)CN(C35CC(C3)C(=O)NC5=O)C4=O)C2)o1` (racemic) [Compound 150-B, Rac-1-(5-(((trans)-2-(3-(5-methyloxazol-2-yl)azetidin-1-yl)cyclohexyl)oxy)-1-oxoisoindolin-2-yl)-3-azabicyclo[3.1.1]heptane-2,4-dione] the value was above 10000 nM; for `O=C1NC(=O)C2(N3Cc4cc(OC5CCC[C@@H]5N5CC(c6ncc(Cl)cn6)C5)ccc4C3=O)CC1C2` (mixture of isomers) [Compound 156-B, Rac-1-(5-(((cis)-2-(3-(5-chloropyrimidin-2-yl)azetidin-1-yl)cyclopentyl)oxy)-1-oxoisoindolin-2-yl)-3-azabicyclo[3.1.1]heptane-2,4-dione], above 10000 nM. Same read-out and setting: for `O=C1NC(=O)C2(N3Cc4cc(OC5CCC[C@@H]5N5CC(c6ncc(Cl)cn6)C5)ccc4C3=O)CC1C2` (mixture of isomers) [Compound 157-B, Rac-1-(5-(((trans)-2-(3-(5-chloropyrimidin-2-yl)azetidin-1-yl)cyclopentyl)oxy)-1-oxoisoindolin-2-yl)-3-azabicyclo[3.1.1]heptane-2,4-dione] the value was above 10000 nM. The same measure, in the same setting: for `O=C1NC(=O)C2(N3Cc4cc(O[C@@H]5CCCC[C@@H]5N5CC(c6ccncc6)C5)ccc4C3=O)CC1C2` (racemic) [Compound 159-B, Rac-1-(1-oxo-5-(((cis)-2-(3-(pyridin-4-yl)azetidin-1-yl)cyclohexyl)oxy)isoindolin-2-yl)-3-azabicyclo[3.1.1]heptane-2,4-dione] the value was above 10000 nM. In the case of `O=C1NC(=O)C2(N3Cc4cc(O[C@H]5CCCC[C@@H]5N5CC(c6ccncc6)C5)ccc4C3=O)CC1C2` (racemic) [Compound 160-B, Rac-1-(1-oxo-5-(((trans)-2-(3-(pyridin-4-yl)azetidin-1-yl)cyclohexyl)oxy)isoindolin-2-yl)-3-azabicyclo[3.1.1]heptane-2,4-dione], the EC50 in experiment [1] is above 10000 nM.

Turning to `O=C1CCC(N2Cc3cc(O[C@@H]4CCCC[C@@H]4N4CC(c5ncncc5Cl)C4)ccc3C2=O)C(=O)N1` (single isomer, unassigned) [Compound 94-B], the EC50 in experiment [1] amounted to 29 nM. In addition, the DC50 at IKZF2 (Helios) is above 30 µM.

`O=C1CCC(N2Cc3cc(O[C@@H]4CCCC[C@@H]4N4CC(c5ccncc5Cl)C4)ccc3C2=O)C(=O)N1` (single isomer, unassigned) [Compound 96-B]: the EC50 in experiment [1] is 30 nM. The same compound showed a DC50 on IKZF2 (Helios) above 30 µM.

Turning to `O=C1CCC(N2Cc3cc(O[C@H]4CCCC[C@H]4N4CC(c5ccc(Cl)cn5)C4)ccc3C2=O)C(=O)N1` (single isomer, unassigned) [Compound 97-B], in experiment [1], the EC50 stood at 11 nM. At IKZF2 (Helios), the 50% degradation concentration (DC50) is above 30 µM.

Regarding `O=C1CCC(N2Cc3cc(O[C@@H]4CCCC[C@@H]4N4CC(c5ccc(Cl)cn5)C4)ccc3C2=O)C(=O)N1` (single isomer, unassigned) [Compound 101-B], the EC50 in experiment [1] is 11 nM. This compound also showed a DC50 on IKZF2 (Helios) above 30 µM. For `O=C1CCC(N2Cc3cc(O[C@@H]4CCCC[C@@H]4N4CC(c5ccncc5F)C4)ccc3C2=O)C(=O)N1` (single isomer, unassigned) [Compound 104-B], the EC50 in experiment [1] turned out to be 38 nM. The same compound registered a DC50 on IKZF2 (Helios) above 30 µM. On to `O=C1CCC(N2Cc3cc(O[C@@H]4CCCC[C@H]4N4CC(c5ncc(Br)cn5)C4)ccc3C2=O)C(=O)N1` (single isomer, unassigned) [Compound 106-B], for which the EC50 in experiment [1] stood at 6 nM. The compound further returned a DC50 on IKZF2 (Helios) above 30 µM. Taken in the same sequence, the figures for `O=C1CCC(N2Cc3cc(O[C@H]4CCCC[C@@H]4N4CC(c5ncc(Br)cn5)C4)ccc3C2=O)C(=O)N1` (single isomer, unassigned) [Compound 107-B] were 22 nM and above 30 µM.

`O=C1CCC(N2Cc3cc(O[C@@H]4CCCC[C@H]4N4CC(c5ncc(Cl)cn5)C4)ccc3C2=O)C(=O)N1` (single isomer, unassigned) [Compound 109-B]: the EC50 in experiment [1] was 9 nM. For the same compound, at IKZF2 (Helios), the DC50 is above 30 µM. Regarding `O=C1CCC(N2Cc3cc(O[C@H]4CCCC[C@@H]4N4CC(c5ncc(Cl)cn5)C4)ccc3C2=O)C(=O)N1` (single isomer, unassigned) [Compound 110-B], the EC50 in experiment [1] was 32 nM. In addition, the DC50 on IKZF2 (Helios) was above 30 µM. Taken in the same sequence, the figures for `O=C1CCC(N2Cc3cc(O[C@H]4CCCC[C@H]4N4CC(c5cncc(Cl)c5)C4)ccc3C2=O)C(=O)N1` (single isomer, unassigned) [Compound 114-B] were 20 nM and above 30 µM. Taken in the same sequence, the figures for `O=C1CCC(N2Cc3cc(O[C@@H]4CCCC[C@@H]4N4CC(c5ncc(C(F)(F)F)cn5)C4)ccc3C2=O)C(=O)N1` (single isomer, unassigned) [Compound 118-B] were 4 nM and above 30 µM. Consider `O=C1CCC(N2Cc3cc(OC4CCCC4N4CC(c5ncc(F)cn5)C4)ccc3C2=O)C(=O)N1` (stereo not shown) [Compound 158-B, 3-(5-((2-(3-(5-fluoropyrimidin-2-yl)azetidin-1-yl)cyclopentyl)oxy)-1-oxoisoindolin-2-yl)piperidine-2,6-dione], for which the EC50 in experiment [1] was determined as 88 nM.
